Experimental data: US20130102680A1, “METHODS FOR SELECTIVE SILENCING OF SENSORY NEURONS” (CORNELL UNIVERSITY, priority 2011, published 2013)

Assays:
[1] = target: T1, rat TRPV1 (Rattus norvegicus, UniProt O35433); assay: YO-PRO-1 uptake (imaging / plate-reader) in TRPV1-expressing cells; format: cell-based; details: for fold decrease of t1/2 to maximal YO-PRO-1 fluorescence, pretreated vs not pretreated cells: 50 μM agonist pre-incubated two hours then removed, 5 μM YO-PRO-1, n=3; for agonist-induced YO-PRO-1 uptake: extracellular application
T1 construct: expressed in transfected cells
T1 sequence (O35433 whole entry): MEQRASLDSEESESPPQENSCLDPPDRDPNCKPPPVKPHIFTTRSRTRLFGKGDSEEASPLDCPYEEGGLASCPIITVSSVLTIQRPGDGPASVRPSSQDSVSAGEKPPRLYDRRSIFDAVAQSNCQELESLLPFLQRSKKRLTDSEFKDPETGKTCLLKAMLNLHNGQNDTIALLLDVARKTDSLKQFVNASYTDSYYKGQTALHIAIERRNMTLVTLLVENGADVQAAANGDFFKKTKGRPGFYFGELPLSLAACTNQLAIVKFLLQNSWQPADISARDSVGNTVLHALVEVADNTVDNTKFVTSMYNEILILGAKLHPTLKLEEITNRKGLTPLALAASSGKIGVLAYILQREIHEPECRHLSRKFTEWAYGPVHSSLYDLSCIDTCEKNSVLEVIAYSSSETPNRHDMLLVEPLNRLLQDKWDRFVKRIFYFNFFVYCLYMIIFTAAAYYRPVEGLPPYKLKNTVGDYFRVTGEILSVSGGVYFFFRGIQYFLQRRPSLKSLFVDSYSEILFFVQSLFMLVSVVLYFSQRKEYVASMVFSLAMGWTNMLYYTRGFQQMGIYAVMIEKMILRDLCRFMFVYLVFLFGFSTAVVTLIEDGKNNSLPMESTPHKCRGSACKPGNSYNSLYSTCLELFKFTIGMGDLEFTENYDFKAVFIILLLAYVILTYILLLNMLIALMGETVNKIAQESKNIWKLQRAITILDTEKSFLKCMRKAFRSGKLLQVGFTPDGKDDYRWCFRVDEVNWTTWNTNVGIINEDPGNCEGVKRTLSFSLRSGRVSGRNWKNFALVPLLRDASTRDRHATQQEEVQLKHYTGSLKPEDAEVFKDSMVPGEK
Protocol: Human embryonic kidney (HEK) 293 cells stably expressing rat TRPV1 were grown in DMEM/F12 with 10% newborn calf serum and antibiotics and cultured in a 5% CO2 aerated incubator at 37° C. Cells were trypsinized and plated on 96-well plates or matrix-coated coverslips for Ca^2+ imaging, YO-PRO-1 imaging, plate-reader assays, or electrophysiological recording. Calcium imaging, fluorescent dye uptake assays, and electrophysiological experiments were all performed 24-72 hours after plating.
Cells were plated in 96-well plates to near confluence. Images were acquired at a rate of 1 frame per 15 sec. The fields were illuminated for 2 sec for each frame. The fluorescent intensity was measured at the emission wavelength of 510/20 nm. 2× concentration of agonists and 10 μM YO-PRO-1 were mixed and added at equal volume to a bath solution with the same electrolyte composition except omitting CaCl2.
TRPV1 cell lines were passed into 96-well plate, grown to confluence, and assayed in a physiological Ringer solution. 50 μl of solution as used for YO-PRO-1 imaging with agonists of various concentrations was added to each well. Fluorescence intensity (485-nm excitation, 516-nm emission) was monitored by Multi-detection Microplate Reader (BioTek). For normalization, cells were fixed by 5% PFA at the end of experiments and counted total fluorescence from each well after adding digitonin solution (Assay Designs) with 5 μM YO-PRO-1.

[2] = target: T1, rat TRPV1; assay: Electrophysiology of membrane patches from HEK cells expressing rat TRPV1; format: cell-based
[3] = target: T1, rat TRPV1; assay: Ca^2+ imaging (Fura-2) in HEK293 cells stably expressing rat TRPV1; format: cell-based; details: for intracellular Ca^2+ level on extracellular application: ratiometric fura-2 imaging
[4] = test system: voltage gated Na+ channels; assay: Neuronal Na+ currents after cap-ET and/or QX-314 loading, whole-cell recording; details: PAO or cap-ET alone (10 μM), then 5 mM QX-314
[5] = target: T2, rTRPV1 Y511A (Rattus norvegicus, UniProt O35433, Y511A); assay: YO-PRO-1 entry in HEK cells expressing rTRPV1 Y511A; format: cell-based
T2 construct: expressed in transfected cells; host or cells: HEK cells
T2 sequence (O35433 whole entry Y511A): as the sequence (O35433 whole entry) above, with Y511A counted along it
Protocol: Cells were plated in 96-well plates to near confluence. Images were acquired at a rate of 1 frame per 15 sec. The fields were illuminated for 2 sec for each frame. […] TRPV1 cell lines were passed into 96-well plate, grown to confluence, and assayed in a physiological Ringer solution. 50 μl of solution as used for YO-[MUT] imaging with agonists of various concentrations was added to each well. Fluorescence intensity (485-nm excitation, 516-nm emission) was monitored by Multi-detection Microplate Reader (BioTek). For normalization, cells were fixed by 5% PFA at the end of experiments and counted total fluorescence from each well after adding digitonin solution (Assay Designs) with 5 μM YO-[MUT].

CCCC(=O)O[C@@H]1[C@@H](C)[C@@]2(O)[C@@H](C=C(CO)C[C@]3(O)C(=O)C(C)=C[C@@H]23)[C@@H]2C(C)(C)[C@]12OC(=O)CCC [PDBu]
effect on potency of capsaicin or cap-ET for YO-PRO-1 uptake [1]: increased the potency

N.N.N.N.N.N.N.N.N.N.N.N.N.N.[Cl-].[Cl-].[Cl-].[Cl-].[Cl-].[Cl-].[O-2].[O-2].[Ru+3].[Ru+3].[Ru+4] [RR, ruthenium red]
effect on capsaicin-mediated YO-PRO-1 entry ([1]; 10 μM): effectively suppressed YO-PRO-1 entry

C[n+]1c(C=C2C=CN(CCC[N+](C)(C)C)c3ccccc32)oc2ccccc21 [YO-PRO-1, reference compound]
block of TRPV1 currents evoked by 10 μM capsaicin ([2]; 5 μM, inside-out patch): reversibly blocked

COc1cc(CNC(=O)CCCC/C=C/C(C)C)ccc1OCC[N+](C)(C)C [cap-ET, capsaicin O-ethyl (trimethyl-ammonium) acetate]
rank of potency and efficacy in Ca^2+ signals among the three charged capsaicinoids [3]: most potent and efficacious among the three
intracellular Ca^2+ level on extracellular application [3]: effectively raised intracellular Ca^2+ levels
fold decrease of t1/2 to maximal YO-PRO-1 fluorescence, pretreated vs not pretreated cells [1]: 5.37±0.99 fold
agonist-induced YO-PRO-1 uptake [1]: induced YO-PRO-1 uptake
hydrophilicity relative to capsaicin, based on water/octanol partitioning: over 300 fold
Icap-ET/Icap (ionic current relative to capsaicin), PAO-sensitized TRPV1 [2]: 3.0±0.9%
electric current induced, TRPV1 sensitized by 10 μM PAO ([2]; 100 μM cap-ET): recordable but small current
block of capsaicin-induced TRPV1 currents ([2]; 100 μM cap-ET co-applied with 30 μM capsaicin, from outside or inside): strong voltage-dependent block
electric current induced on cytoplasmic side of inside-out patch ([2]; 100 μM cap-ET, compared to 30 μM capsaicin): barely detectable electric current
Na+ current density after QX-314, agent alone [4]: comparable to cells not exposed to QX-314

CC[N+](CC)(CC)CCOc1ccc(CNC(=O)CCCC/C=C/C(C)C)cc1OC [cap-ETEA, capsaicin O-tetra-ethylammonium acetate]
intracellular Ca^2+ level on extracellular application [3]: effectively raised intracellular Ca^2+ levels

COc1cc(CNC(=O)CCCC/C=C/C(C)C)ccc1O [capsaicin]
intracellular Ca^2+ level on extracellular application [3]: large intracellular Ca^2+ rise
fold decrease of t1/2 to maximal YO-PRO-1 fluorescence, pretreated vs not pretreated cells [1]: 1.14±0.04 fold
agonist-induced YO-PRO-1 uptake [1]: induced YO-PRO-1 uptake
YO-PRO-1 transport via rTRPV1 Y511A mutant [5]: failed to elicit YO-PRO-1 transport
